In patent publication US20200297711A1, “PHARMACEUTICAL COMPOSITION COMPRISING FGFR SELECTIVE TYROSINE KINASE INHIBITOR” (priority 2017, published 2020):
Marks after values point to notes of the source that are not given here.

Experiments:
[1] = test system: FGFR2-fusion gene positive intrahepatic cholangiocarcinoma; assay: Anti-tumor activity, tumor size, patient; assay type: in vivo, human; details: 30 mg once daily, one patient, FGFR2-fusion gene positive (78%)
Description: When Compound A was administered once daily at 30 mg to a patient with FGFR2-fusion gene positive (78%) intrahepatic cholangiocarcinoma, the tumor size reduced by about 9%.

[2] = Pharmacokinetics in plasma following single dose and repeated doses of Compound A 1.5 succinate; assay type: in vivo, human; details: for AUC(0-t) / Cavg / Cmax / Cmin / tmax / tmax, median (minimum − maximum) / AUC(0-inf) / CL/F / t1/2: Compound A
Description: In order to evaluate the PK when administered as a single dose, a single dose of Compound A for each treatment group (at the corresponding dosage for that group) was administered on Day 1. Compound A was administered when fasted, immediately after waking up with at least 10 hours fasting. Taking any meal was prohibited for 2 hours after administration and only drinking water was allowed.
Cycle 1 was started between 8 and 10 days after dosing in Cycle 0 and Compound A was administered continuously once daily. Compound A was administered at least 2 hours after breakfast, and any food intake was prohibited for 1 hour after administration. However, on Day 8 of Cycle 1, Compound A was administered immediately after waking up while the subject was fasted after at least 10 hours of overnight fasting in order to evaluate the PK. Taking any meals was prohibited for 2 hours after administration and only drinking water was allowed.
Plasma concentration profile of Compound A following a single dose and repeated doses of Compound A 1.5 succinate are shown in FIG. 1 and FIG. 2, respectively. The profile shown in FIG. 2 is that at steady state.
(§1) The pharmacokinetic parameters of Compound A following the single dose and repeated doses of Compound A 1.5 succinate are shown in the following table. The pharmacokinetic parameters of Compound A following repeated doses of Compound A 1.5 succinate shown below are those at steady state.
as §1, with “1.5 succinate updated after obtaining the above data are shown” for “1.5 succinate are shown”
The pharmacokinetic parameters of Compound B following the single dose and repeated doses of Compound A 1.5 succinate are shown in the following table. The pharmacokinetic parameters of Compound B following repeated doses of Compound A 1.5 succinate shown below are those at steady state.

[3] = repeated once-daily doses 30 mg, steady state (n = 2), Table 4
[4] = repeated once-daily doses 30 mg, steady state (n = 2), Table 5 (updated)
[5] = repeated once-daily doses 60 mg, steady state (n = 2), Table 4
[6] = repeated once-daily doses 60 mg, steady state (n = 2), Table 5 (updated)
[7] = repeated once-daily doses 100 mg, steady state (n = 3), Table 4
[8] = repeated once-daily doses 100 mg, steady state (n = 3), Table 5 (updated)
[9] = repeated once-daily doses 140 mg, steady state (n = 3), Table 4
[10] = repeated once-daily doses 140 mg, steady state (n = 3), Table 5 (updated)
[11] = repeated once-daily doses 180 mg, steady state (n = 3), Table 4
[12] = repeated once-daily doses 180 mg, steady state (n = 3), Table 5 (updated)
[13] = single dose 30 mg (n = 2), Table 4
[14] = single dose 30 mg (n = 2), Table 5 (updated)
[15] = single dose 60 mg (n = 3), Table 4
[16] = single dose 60 mg (n = 3), Table 5 (updated)
[17] = single dose 100 mg (n = 3), Table 4
[18] = single dose 100 mg (n = 3), Table 5 (updated)
[19] = single dose 140 mg (n = 3), Table 4
[20] = single dose 140 mg (n = 3), Table 5 (updated)
[21] = single dose 180 mg (n = 3), Table 4
[22] = single dose 180 mg (n = 3), Table 5 (updated)

With CNC(=O)n1ccc2cc(Oc3ccnc(NC(=O)c4ccc(C5CCN(CCO)CC5)cc4)c3)c(OCCOC)cc21 [Compound A, 5-((2-(4-(1-(2-hydroxyethyl)piperidin-4-yl)benzamide)pyridin-4-yl)oxy)-6-(2-methoxyethoxy)-N-methyl-1H-indole-1-carboxamide] the tumor size reduction [1] was “about 9%”, the “metabolism in human subjects” value ([2]; Compound A administered to human subjects) was “metabolized in the body to produce Compound B” and the “AUC(0-t)” value [2, 3] was 158 ng·h/mL. The Cavg [2, 3] was 6.58 ng/mL, the Cmax [2, 3] was 13.3 ng/mL and the Cmin [2, 3] was 2.48 ng/mL. For the same compound, the tmax [2, 3] was 4 (3-5) h, the “AUC(0-t)” value [2, 4] was 162 ng·h/mL and the Cavg [2, 4] was 6.75 ng/mL. For the same compound, the Cmax [2, 4] was 13.3 ng/mL, the Cmin [2, 4] was 4.50 ng/mL and the “tmax, median (minimum − maximum)” value [2, 4] was 3.99 (3.00-4.97) h. The “AUC(0-t)” value [2, 5] was 499^a^ h · ng/mL, the Cavg [2, 5] was 20.8^a ng/mL and the Cmax [2, 5] was 50.5^a ng/mL. For the same compound, the Cmin [2, 5] was 8.28^a ng/mL, the tmax [2, 5] was 2.5 (2-3)^a h and the “AUC(0-t)” value [2, 6] was 507^a^ h · ng/mL. The Cavg [2, 6] was 21.1^a ng/mL, the Cmax [2, 6] was 50.5^a ng/mL and the Cmin [2, 6] was 11.0^a ng/mL. The “tmax, median (minimum − maximum)” value [2, 6] was 2.54 (2.07-3.00) ^a h, the “AUC(0-t)” value [2, 7] was 1330 ± 417 ng·h/mL and the Cavg [2, 7] was 55.2 ± 17.3 ng/mL. For the same compound, the Cmax [2, 7] was 116 ± 3.79 ng/mL, the Cmin [2, 7] was 18.7 ± 7.95 ng/mL and the tmax [2, 7] was 3 (2-5) h. The “AUC(0-t)” value [2, 8] was 1340 ± 437 ng·h/mL, the Cavg [2, 8] was 55.91 ± 8.2 ng/mL and the Cmax [2, 8] was 116 ± 3.79 ng/mL. For the same compound, the Cmin [2, 8] was 22.3 ± 8.48 ng/mL, the “tmax, median (minimum − maximum)” value [2, 8] was 2.97 (2.03-5.00) h and the “AUC(0-t)” value [2, 9] was 4700 ± 3380 ng·h/mL. For the same compound, the Cavg [2, 9] was 196 ± 141 ng/mL, the Cmax [2, 9] was 372 ± 173 ng/mL and the Cmin [2, 9] was 101 ± 94.5 ng/mL. For the same compound, the tmax [2, 9] was 5 (3-5) h, the “AUC(0-t)” value [2, 10] was 4700 ± 3380 ng·h/mL and the Cavg [2, 10] was 196 ± 141 ng/mL. The Cmax [2, 10] was 372 ± 173 ng/mL, the Cmin [2, 10] was 117 ± 116 ng/mL and the “tmax, median (minimum − maximum)” value [2, 10] was 5.00 (2.98-5.08) h. The “AUC(0-t)” value [2, 11] was 3850 ± 777 ng·h/mL, the Cavg [2, 11] was 161 ± 32.3 ng/mL and the Cmax [2, 11] was 337 ± 60.3 ng/mL. The Cmin [2, 11] was 61.4 ± 19.9 ng/mL, the tmax [2, 11] was 5 (3-5) h and the “AUC(0-t)” value [2, 12] was 3860 ± 764 ng·h/mL. For the same compound, the Cavg [2, 12] was 161 ± 32.3 ng/mL, the Cmax [2, 12] was 337 ± 60.3 ng/mL and the Cmin [2, 12] was 64.8 ± 19.4 ng/mL. The “tmax, median (minimum − maximum)” value [2, 12] was 5.00 (3.05-5.08) h, the “AUC(0-inf)” value [2, 13] was 236 ng·h/mL and the “AUC(0-t)” value [2, 13] was 220 ng·h/mL. For the same compound, the CL/F [2, 13] was 128 L/h, the Cmax [2, 13] was 28.1 ng/mL and the t1/2 [2, 13] was 22.8 h. The tmax [2, 13] was 3 (1-5) h, the “AUC(0-inf)” value [2, 14] was 239 ng·h/mL and the “AUC(0-t)” value [2, 14] was 222 ng·h/mL. For the same compound, the CL/F [2, 14] was 127 L/h, the Cmax [2, 14] was 28.1 ng/mL and the t1/2 [2, 14] was 22.7 h. The “tmax, median (minimum − maximum)” value [2, 14] was 3.04 (0.93-5.15) h, the “AUC(0-inf)” value [2, 15] was 551 ± 240 ng·h/mL and the “AUC(0-t)” value [2, 15] was 529 ± 250 ng·h/mL. The CL/F [2, 15] was 122 ± 42.5 L/h, the Cmax [2, 15] was 38.7 ± 4.69 ng/mL and the t1/2 [2, 15] was 23.1 ± 7.65 h. The tmax [2, 15] was 3 (3-5) h, the “AUC(0-inf)” value [2, 16] was 554 ± 247 ng·h/mL and the “AUC(0-t)” value [2, 16] was 533 ± 257 ng·h/mL. For the same compound, the CL/F [2, 16] was 121 ± 43.1 L/h, the Cmax [2, 16] was 38.7 ± 4.69 ng/mL and the t1/2 [2, 16] was 23.1 ± 7.63 h. For the same compound, the “tmax, median (minimum − maximum)” value [2, 16] was 3.00 (2.97-4.98)^ h, the “AUC(0-inf)” value [2, 17] was 1120 ± 488 ng·h/mL and the “AUC(0-t)” value [2, 17] was 1090 ± 483 ng·h/mL. It also gave a CL/F [2, 17] of 103 ± 48.9 L/h, a Cmax [2, 17] of 85.9 ± 30.8 ng/mL and a t1/2 [2, 17] of 15.1 ± 1.77 h. The tmax [2, 17] was 5 (3-5) h, the “AUC(0-inf)” value [2, 18] was 1120 ± 479 ng·h/mL and the “AUC(0-t)” value [2, 18] was 1080 ± 474 ng·h/mL. The CL/F [2, 18] was 103 ± 48.2 L/h, the Cmax [2, 18] was 85.9 ± 30.8 ng/mL and the t1/2 [2, 18] was 15.2 ± 1.84 h. For the same compound, the “tmax, median (minimum − maximum)” value [2, 18] was 4.95 (2.97-5.10) h, the “AUC(0-inf)” value [2, 19] was 4000 ± 3340 ng·h/mL and the “AUC(0-t)” value [2, 19] was 3900 ± 3230 ng·h/mL. For the same compound, the CL/F [2, 19] was 60.4 ± 51.6 L/h, the Cmax [2, 19] was 227 ± 118.0 ng/mL and the t1/2 [2, 19] was 26.4 ± 12.2 h. The tmax [2, 19] was 5 (3-5) h, the “AUC(0-inf)” value [2, 20] was 4050 ± 3340 ng·h/mL and the “AUC(0-t)” value [2, 20] was 3960 ± 3230 ng·h/mL. For the same compound, the CL/F [2, 20] was 59.0 ± 50.2 L/h, the Cmax [2, 20] was 227 ± 118 ng/mL and the t1/2 [2, 20] was 26.4 ± 12.4 h. The “tmax, median (minimum − maximum)” value [2, 20] was 4.88 (3.00-5.08) h, the “AUC(0-inf)” value [2, 21] was 2570 ± 907 ng·h/mL and the “AUC(0-t)” value [2, 21] was 2540 ± 924 ng·h/mL. The CL/F [2, 21] was 75.0 ± 22.0 L/h, the Cmax [2, 21] was 154 ± 38.4 ng/mL and the t1/2 [2, 21] was 23.6 ± 10.2 h. For the same compound, the tmax [2, 21] was 2 (2-5) h, the “AUC(0-inf)” value [2, 22] was 2610 ± 921 ng·h/mL and the “AUC(0-t)” value [2, 22] was 2570 ± 933 ng·h/mL. For the same compound, the CL/F [2, 22] was 74.2 ± 21.8 L/h, the Cmax [2, 22] was 154 ± 38.4 ng/mL and the t1/2 [2, 22] was 23.7 ± 10.4 h. For the same compound, the “tmax, median (minimum − maximum)” value [2, 22] was 2.12 (1.95-5.00) h.
